{"source": "ChEMBL document CHEMBL1777675", "about": "“N-hydroxy-N'-aminoguanidines as anti-cancer lead molecule: QSAR, synthesis and biological evaluation” (Bioorg Med Chem Lett, 2011)", "key": {"[1]": {"test": "Cytotoxicity against human HeLa cells", "type": "cell-based"}, "[2]": {"test": "Cytotoxicity against african green monkey Vero cells", "type": "cell-based", "conditions": "chlorocebus sabaeus"}, "[3]": {"test_system": "HL-60", "test": "Anticancer activity against human HL60 cells", "type": "functional, cell-based"}, "[4]": {"test_system": "L1210", "test": "Cytotoxicity against mouse L1210 cells after 65 hrs by MTS/PES microculture tetrazolium assay", "type": "functional, cell-based", "conditions": "L1210, 65 h"}}}
{"smiles": "N=C(NO)N/N=C/c1ccc(Cl)cc1", "values": [{"measurement": "CC50", "setting": "[1]", "value": "> 100", "unit": "µM"}, {"measurement": "CC50", "setting": "[2]", "value": "> 100", "unit": "µM"}, {"measurement": "IC50", "setting": "[3]", "value": "> 100", "unit": "µM"}]}
{"smiles": "CN(C)c1ccc(/C=N/NC(=N)NO)cc1", "values": [{"measurement": "CC50", "setting": "[1]", "value": "> 100", "unit": "µM"}, {"measurement": "CC50", "setting": "[2]", "value": "> 100", "unit": "µM"}, {"measurement": "IC50", "setting": "[3]", "value": "> 100", "unit": "µM"}]}
{"smiles": "N=C(NO)N/N=C/c1ccc(O)cc1", "values": [{"measurement": "CC50", "setting": "[1]", "value": "> 100", "unit": "µM"}, {"measurement": "CC50", "setting": "[2]", "value": "> 100", "unit": "µM"}, {"measurement": "IC50", "setting": "[3]", "value": "> 100", "unit": "µM"}]}
{"smiles": "COc1ccc(/C=N/NC(=N)NO)cc1", "values": [{"measurement": "CC50", "setting": "[1]", "value": "> 100", "unit": "µM"}, {"measurement": "CC50", "setting": "[2]", "value": "> 100", "unit": "µM"}, {"measurement": "IC50", "setting": "[3]", "value": "> 100", "unit": "µM"}]}
{"smiles": "COc1ccc(/C=N/NC(=N)NO)cc1O", "values": [{"measurement": "CC50", "setting": "[1]", "value": "> 100", "unit": "µM"}, {"measurement": "CC50", "setting": "[2]", "value": "> 100", "unit": "µM"}, {"measurement": "IC50", "setting": "[3]", "value": "> 100", "unit": "µM"}]}
{"smiles": "N/C(=N\\O)N/N=C/c1ccccc1O", "values": [{"measurement": "CC50", "setting": "[1]", "value": "> 100", "unit": "µM"}, {"measurement": "CC50", "setting": "[2]", "value": "> 100", "unit": "µM"}, {"measurement": "IC50", "setting": "[3]", "value": 95, "unit": "µM"}]}
{"smiles": "N=C(NO)N/N=C/c1ccccc1Cl", "values": [{"measurement": "CC50", "setting": "[1]", "value": "> 100", "unit": "µM"}, {"measurement": "CC50", "setting": "[2]", "value": "> 100", "unit": "µM"}, {"measurement": "IC50", "setting": "[3]", "value": 60, "unit": "µM"}]}
{"smiles": "COc1ccccc1/C=N/N=C(\\N)NO", "values": [{"measurement": "CC50", "setting": "[1]", "value": "> 100", "unit": "µM"}, {"measurement": "CC50", "setting": "[2]", "value": "> 100", "unit": "µM"}, {"measurement": "IC50", "setting": "[3]", "value": "> 100", "unit": "µM"}]}
{"smiles": "CS(=O)(=O)Oc1ccc(/C=N/NC(=N)NO)cc1", "values": [{"measurement": "IC50", "setting": "[4]", "value": 14.8, "unit": "µM"}]}
{"smiles": "CCCCCCOc1ccc(/C=N/NC(=N)NO)cc1", "values": [{"measurement": "IC50", "setting": "[4]", "value": 7.8, "unit": "µM"}]}
{"smiles": "CCCCOc1ccc(/C=N/NC(=N)NO)cc1", "values": [{"measurement": "IC50", "setting": "[4]", "value": 8.53, "unit": "µM"}]}
{"smiles": "Cc1ccn(C)c1/C=N/NC(=N)NO", "values": [{"measurement": "IC50", "setting": "[4]", "value": 2.7, "unit": "µM"}]}
{"smiles": "O=C(NO)N/N=C\\C1=CCc2c(Cl)cc(Cl)cc2C1=O", "values": [{"measurement": "IC50", "setting": "[4]", "value": 28.2, "unit": "µM"}]}
{"smiles": "CC(C)c1ccc2c(c1)C(=O)C(/C=N\\NC(=O)NO)=CC2", "values": [{"measurement": "IC50", "setting": "[4]", "value": 32.2, "unit": "µM"}]}
{"smiles": "O=C(NO)N/N=C/C1CC2C=CC1C2", "note": "(configuration not stated)", "values": [{"measurement": "IC50", "setting": "[4]", "value": 10.6, "unit": "µM"}]}
{"smiles": "N=C(NO)N/N=C/c1cc2ccccc2cn1", "values": [{"measurement": "IC50", "setting": "[4]", "value": 3.3, "unit": "µM"}]}
{"smiles": "N=C(NO)N/N=C1\\C(=O)Nc2ccccc21", "values": [{"measurement": "IC50", "setting": "[4]", "value": 48.4, "unit": "µM"}]}
{"smiles": "O=C(NO)N/N=C/C1CCCCC1", "values": [{"measurement": "IC50", "setting": "[4]", "value": 21.2, "unit": "µM"}]}
{"smiles": "N=C(NO)N/N=C/c1ccco1", "values": [{"measurement": "CC50", "setting": "[1]", "value": "> 100", "unit": "µM"}, {"measurement": "CC50", "setting": "[2]", "value": "> 100", "unit": "µM"}, {"measurement": "IC50", "setting": "[3]", "value": "> 100", "unit": "µM"}]}
{"smiles": "Cc1ccccc1/C=N/NC(=N)NO", "values": [{"measurement": "CC50", "setting": "[1]", "value": "> 100", "unit": "µM"}, {"measurement": "CC50", "setting": "[2]", "value": "> 100", "unit": "µM"}, {"measurement": "IC50", "setting": "[3]", "value": "> 100", "unit": "µM"}]}
{"smiles": "Cc1ccc(/C=N/NC(=N)NO)cc1", "values": [{"measurement": "CC50", "setting": "[1]", "value": "> 100", "unit": "µM"}, {"measurement": "CC50", "setting": "[2]", "value": "> 100", "unit": "µM"}, {"measurement": "IC50", "setting": "[3]", "value": 67, "unit": "µM"}]}
{"smiles": "N=C(NO)N/N=C/c1ccccc1", "values": [{"measurement": "CC50", "setting": "[1]", "value": "> 100", "unit": "µM"}, {"measurement": "CC50", "setting": "[2]", "value": "> 100", "unit": "µM"}, {"measurement": "IC50", "setting": "[3]", "value": 62, "unit": "µM"}]}
{"smiles": "N=C(NO)N/N=C/c1c2ccccc2cc2ccccc12", "values": [{"measurement": "CC50", "setting": "[1]", "value": "> 100", "unit": "µM"}, {"measurement": "CC50", "setting": "[2]", "value": "> 100", "unit": "µM"}, {"measurement": "IC50", "setting": "[3]", "value": 11, "unit": "µM"}]}
{"smiles": "Cc1ccsc1/C=N/N=C(/N)NO", "values": [{"measurement": "IC50", "setting": "[4]", "value": 33.2, "unit": "µM"}]}
{"smiles": "N/C(=N/N=C/c1ccccn1)NO", "values": [{"measurement": "IC50", "setting": "[4]", "value": 10.9, "unit": "µM"}]}
{"smiles": "COc1cccc(/C=N/NC(=N)NO)c1", "values": [{"measurement": "IC50", "setting": "[4]", "value": 16, "unit": "µM"}]}
{"smiles": "Cc1cccc(/C=N/N=C(\\N)NO)n1", "values": [{"measurement": "IC50", "setting": "[4]", "value": 42.1, "unit": "µM"}]}
{"smiles": "N/C(=N\\O)N/N=C/c1cccc(C(F)(F)F)c1", "values": [{"measurement": "IC50", "setting": "[4]", "value": 15.1, "unit": "µM"}]}
{"smiles": "N/C(=N\\O)N/N=C/c1cccs1", "values": [{"measurement": "IC50", "setting": "[4]", "value": 34.1, "unit": "µM"}]}
{"smiles": "N/C(=N\\O)N/N=C/c1cccc(I)c1", "values": [{"measurement": "IC50", "setting": "[4]", "value": 12.5, "unit": "µM"}]}
{"smiles": "N=C(NN)NO", "values": [{"measurement": "IC50", "setting": "[4]", "value": 126, "unit": "µM"}]}
